Measured values as given in patent US20240358672A1, “APPLICATION OF GENISTEIN AND ITS PHOSPHATE ESTER DERIVATIVE AND PHARMACEUTICAL COMPOSITION COMPRISING THE SAME” (National Taiwan University, priority 2023, published 2024).

How the values were obtained:
[1] = tested on: engineered heart tissues (EHTs) composed of hiPSC-ECs and hiPSC-CMs; assay: Engineered heart tissues (EHTs) contractility
Experimental: FIG. 8A to 8C illustrate the effects of genistein and Δ^9-THC on cardiac contraction in vivo or in vitro experiments according to Example 9. […] After treatment exposure, the contractility, relaxation and peak force of EHT were measured using the Sony imaging platform. FIG. 8B: Same as the former, analysis of heart rate and contraction-relaxation (CR) interval (48 hours). […] Mice were anesthetized with 1%-2% isoflurane, and images were acquired in the parasternal long-axis (PLA) and parasternal short axis (PSA) on a Visualsonic Vevo 2100 platform. The ventricular (LV) dimensions were traced offline, and the ejection fraction (EF) was calculated using Simpson's biplane method of discs.
The inventor used engineered heart tissues (EHTs) composed of hiPSC-ECs and hiPSC-derived cardiomyocytes (hiPSC-CMs) to interrogate the effects of genistein and Δ^9-THC on contractility in vitro.

Apoe^−/− mice = assay: Apoe−/− partial carotid artery ligation (PCAL) atherosclerosis model; format: in vivo, mouse; details: HFD 10 days
Source text: FIG. 10A to 10C illustrate the effects of Δ^9-THC and genistein on the treatment of atherosclerosis in vivo using the Apoe^−/− mouse model according to Example 10. FIG. 10A: Gross images of carotid arteries after oil red O staining are shown (left panel). The scale bar represents 1 mm. A diagram of partial ligation of the carotid artery is shown (right panel). […] The right subclavian artery (RSA), right common carotid artery (RCA), and left subclavian artery (LSA) were unligated and remained patent. FIG. 10B: Carotid artery sections were counterstained with hematoxylin and eosin (H&E), and a representative slide was presented with scale bars at 100 μm (left panel). Oil red O staining of atherosclerotic plaques in cross-section of mouse carotid artery with scale bar at 100 μm. The atherosclerotic plaques were quantified (right panel). FIG. 10C: Carotid artery sections were immunostained with an anti-F4/80 antibody. […] Quantification of F4/80-positive area within carotid artery sections (top right). Carotid artery sections were immunostained with an anti-CD68 antibody. […] Quantification of CD68-positive area within carotid artery sections is shown (bottom right).
Further, an Apoe^−/− mouse model was also employed to investigate the effects of Δ^9-THC and cotreatment with genistein on atherosclerosis. Partial carotid artery ligation (PCAL) was performed in Apoe^−/− mice at 10-16 weeks. […] All mice were fed a HFD for 10 days. At the end of the treatment protocol, the Apoe^−/− mice were euthanized and subjected to histological analysis. […] Macrophage recruitment was tested using the macrophage-specific F4/80 antibody and CD68 antibody. […] Consistent with the Ldlr^−/− model findings, the Apoe^−/− PCAL mouse model found increased plaque size and increased macrophage recruitment with Δ^9-THC, and genistein cotreatment ameliorated these indices of atherosclerosis in ligated carotid arteries.

hiPSC-ECs = assay: Western blot / immunofluorescence of p38 and NF-κB (p65) in hiPSC-ECs; details: 48 hours
[2] = tested on: LDL receptor knockout mice (B6.129S7-Ldlr^tm1Her/J); assay: Chronic atherosclerosis in Ldlr−/− mice on high-fat diet; format: in vivo, mouse; details: HFD 12 weeks
Source text: FIG. 9A to 9E illustrate the effect of Δ^9-THC and genistein on the formation of chronic atherosclerosis according to Example 10. FIG. 9A: The body weights of Ldlr^−/− mice after exposure to (1) vehicle control (n=10), (2) Δ^9-THC (n=12), or (3) Δ^9-THC plus genistein (n=12). FIG. 9B: Lipid profiles of serum samples (left panel) and blood pressure (right panel) of Ldlr^−/− mice after exposure to (1) vehicle control (n=10 (left), n=3 (right)), (2) Δ^9-THC (n=12 (left), n=4 (right)), and (3) Δ^9-THC plus genistein (n=12 (left), n=4 (right)). The blood pressure was measured by tail-cuff. FIG. 9C: Oil red O staining of atherosclerotic plaques in cross-sections at the aortic root level (upper panel). Quantitation of atherosclerotic plaques: (1) vehicle control (n=10), (2) Δ^9-THC (n=10), and (3) Δ^9-THC plus genistein (n=11) (bottom panel). FIG. 9D: Gross images of oil red O stained Ldlr^−/− thoracic aorta are shown (left panel). Quantification of plaque size by en face analysis of thoracic aorta after exposure to (1) vehicle control (n=10), (2) Δ^9-THC (n=12), or (3) Δ^9-THC plus genistein (n=12). FIG. 9E: Immunostaining of CD68 in cross-sections at the aortic root level (upper panel). Quantitation of CD68-positive area from (1) vehicle control (n=10), (2) Δ^9-THC (n=9), and (3) Δ^9-THC plus genistein (n=10) (bottom panel).
In this part, In order to investigate the effect of Δ^9-THC and genistein in chronic atherosclerosis formation, LDL receptor knockout mice (B6.129S7-Ldlr^tm1Her/J) were fed a high-fat diet (HFD) for 12 weeks and treated with (1) vehicle control (n=10 to 12/group), (2) Δ^9-THC (n=10 to 12/group, administered Δ^9-THC 1 mg/kg), or (3) Δ^9-THC and genistein (n=10 to 12/group, administered Δ^9-THC 1 mg/kg plus genistein 50 mg/kg). […] After 12 weeks of HFD, the mice were euthanized, and the atherosclerotic lesion area was examined by cross-sections of the aortic root and an en face analysis of the thoracic aorta. […] Macrophage recruitment in the aortic root was analyzed using aortic plaque stained with an anti-CD68 antibody.

[3] = Δ^9-THC 1 mg/kg plus genistein 50 mg/kg
[4] = 10 μM genistein with 5 μM Δ^9-THC

Structure (SMILES): O=c1c(-c2ccc(O)cc2)coc2cc(O)cc(O)c12 [genistein]
- contraction, relaxation, and peak force of EHTs [1]: no significant effect
- Δ^9-THC effects on beat rate and contraction-relaxation interval [1]: did not attenuate these effects
- CD68-positive area in ligated carotid artery (Apoe^−/− mice; [3]): reduced
- F4/80-positive area in ligated carotid artery (Apoe^−/− mice; [3]): decreased
- plaque size in ligated carotid artery (oil red O) (Apoe^−/− mice; [3]): ameliorated the plaque size
- Δ^9-THC-induced NF-κB phosphorylation (hiPSC-ECs; [4]): attenuated NF-κB phosphorylation
- Δ^9-THC-induced p38 phosphorylation (hiPSC-ECs; [4]): decreased
- CD68-positive area in the aortic root [2, 3]: rescued
- plaque formation, en face analysis of the thoracic aorta (oil red O) [2, 3]: improvement of plaque formation
- plaque size, cross-sections of the aortic root [2, 3]: ameliorated plaque size
- serum lipid profiles or blood pressure [2, 3]: Neither Δ^9-THC nor cotreatment with Δ^9-THC and genistein affected

Structure (SMILES): CCCCCc1cc(O)c2c(c1)OC(C)(C)[C@@H]1CCC(C)=C[C@@H]21 [Δ^9-THC, Δ^9-tetrahydrocannabinol]
- beat rate of EHTs ([1]; 5 μM Δ^9-THC, 48 hours): decreased beat rate
- contraction-relaxation interval of EHTs ([1]; 5 μM Δ^9-THC, 48 hours): increased the contraction-relaxation interval
- CD68-positive area in ligated carotid artery (Apoe^−/− mice; Δ^9-THC 1 mg/kg): significantly increased
- F4/80-positive area in ligated carotid artery (Apoe^−/− mice; Δ^9-THC 1 mg/kg): significantly increased
- plaque area in ligated carotid artery (oil red O) (Apoe^−/− mice; Δ^9-THC 1 mg/kg): increased
- p65 (NF-κB) phosphorylation (hiPSC-ECs; 5 μM Δ^9-THC alone): caused p65 phosphorylation
- phosphorylation of p38 (hiPSC-ECs; 5 μM Δ^9-THC alone): increased phosphorylation of p38
- nuclear translocation of NF-κB (p65) (hiPSC-ECs; 5 μM Δ^9-THC): induced
- CD68-positive area in the aortic root ([2]; Δ^9-THC 1 mg/kg): significantly increased
- plaque size, cross-sections of the aortic root ([2]; Δ^9-THC 1 mg/kg): significantly increased plaque size
- serum lipid profiles or blood pressure ([2]; Δ^9-THC 1 mg/kg): Neither Δ^9-THC nor cotreatment with Δ^9-THC and genistein affected
